Among the data in PubChem BioAssay AID248 (DTP/NCI, 2004) are T/C values, retold here.

Several values for one entry are separate records, joined by “and”; a condition that tells them apart may be missing. Identical values can stand only once. Toxic doses and inconclusive results are not listed.

This assay relates to L1210 leukemia ip in BDF1 mice, survival T/C. The assay is described as follows: NCI In Vivo Anticancer Drug Screen. Data for tumor model L1210 Leukemia (intraperitoneal) in B6D2F1 (BDF1) mice. The following applies: endpoint: mean survival time, higher = longer survival. The essentials: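 Value reflects the ratio of survival in compound-treated mice to survival in vehicle-treated controls, with both groups carrying the same transplanted tumor.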

Where [1] appears, read: dose: 6.25 mg/kg/injection, schedule: Q01DX009 (ip), vehicle: Klucel (hydroxypropylcellulose) (HPC).
The mark [2] stands for this setting: dose: 12.5 mg/kg/injection, schedule: Q01DX009 (ip), vehicle: Klucel (hydroxypropylcellulose) (HPC).
[3] abbreviates: dose: 25.0 mg/kg/injection, schedule: Q01DX009 (ip), vehicle: Klucel (hydroxypropylcellulose) (HPC).
[4] abbreviates: dose: 100.0 mg/kg/injection, schedule: Q01DX009 (ip), vehicle: Klucel (hydroxypropylcellulose) (HPC).
Where [5] appears, read: dose: 200.0 mg/kg/injection, schedule: Q01DX009 (ip), vehicle: Klucel (hydroxypropylcellulose) (HPC).
The mark [6] stands for this setting: dose: 400.0 mg/kg/injection, schedule: Q01DX009 (ip), vehicle: Klucel (hydroxypropylcellulose) (HPC).
The mark [7] stands for this setting: dose: 100.0 mg/kg/injection, schedule: Q04DX003 (ip), vehicle: saline.
Setting [8] is: dose: 200.0 mg/kg/injection, schedule: Q04DX003 (ip), vehicle: saline.
Setting [9] is: dose: 100.0 mg/kg/injection, schedule: Q04DX003 (ip), vehicle: saline with Tween-80.
Where [10] appears, read: dose: 200.0 mg/kg/injection, schedule: Q04DX003 (ip), vehicle: saline with Tween-80.
The mark [11] stands for this setting: dose: 400.0 mg/kg/injection, schedule: Q04DX003 (ip), vehicle: saline with Tween-80.
Where [12] appears, read: dose: 15.0 mg/kg/injection, schedule: Q01DX001 (ip), vehicle: carboxymethylcellulose (CMC).
Setting [13] is: dose: 100.0 mg/kg/injection, schedule: Q01DX009 (ip), vehicle: saline with Tween-80.
Where [14] appears, read: dose: 200.0 mg/kg/injection, schedule: Q01DX009 (ip), vehicle: saline with Tween-80.
The mark [15] stands for this setting: dose: 400.0 mg/kg/injection, schedule: Q01DX009 (ip), vehicle: saline with Tween-80.

With `CC(=N/N(C)c1ccccc1)/C(C)=N/N(C)c1ccccc1`, the T/C runs as follows: (dose: 5.0 mg/kg/injection, schedule: Q01DX001 (ip), vehicle: other) 96 % of control; (dose: 10.0 mg/kg/injection, schedule: Q01DX001 (ip), vehicle: other) 102 % of control; (dose: 20.0 mg/kg/injection, schedule: Q01DX001 (ip), vehicle: other) 100 % of control; (dose: 40.0 mg/kg/injection, schedule: Q01DX001 (ip), vehicle: other) 100 % of control; (dose: 80.0 mg/kg/injection, schedule: Q01DX001 (ip), vehicle: other) 93 % of control.
On to `ClC1C2c3ccccc3C(C1Cl)[n+]1ccccc12` (stereo unspecified), for which the T/C by setting is: under setting [1], 109 % of control; under setting [2], 98 % of control; under setting [3], 94 % of control; (dose: 35.0 mg/kg/injection, schedule: Q01DX009 (ip), vehicle: Klucel (hydroxypropylcellulose) (HPC)) 95 % of control.
`COc1ccc(Cl)cc1NS(=O)(=O)c1cccc([N+](=O)[O-])c1`: the T/C is 96 % of control under setting [4], 98 % of control under setting [5] and 91 % of control under setting [6].
`COC1OC(Cn2cc(-c3ccccc3)nn2)C(OC(C)=O)C(OC(C)=O)C1OC(C)=O` (stereo unspecified): the T/C (dose: 100.0 mg/kg/injection, schedule: Q01DX005 (ip), vehicle: saline) was 100 % of control and the T/C (dose: 200.0 mg/kg/injection, schedule: Q01DX005 (ip), vehicle: saline) is 96 % of control.
As to `[CH3][Sb]1([Br])[CH2]CC[CH2]1`, the T/C reads like this: under setting [7], 93 % of control; under setting [8], 101 % of control.
On to `CC(=O)Nc1cccc(/C=C/C=C/c2ccc([N+](=O)[O-])cc2)c1`, for which the T/C reads like this: under setting [9], 93 % of control; under setting [10], 90 % of control; under setting [11], 90 % of control.
With `Cn1cnc([N+](=O)[O-])c1SC#N`, the T/C under setting [12] is 100 % of control.
For `Cc1ccc([N+](=O)[O-])cc1NC(=O)Nc1cccc(F)c1`, the T/C is, setting by setting: under setting [1], 93 % of control; under setting [2], 87 % of control; under setting [3], 92 % of control; under setting [6], 86 % of control.
As for `Clc1c(Cl)c(Cl)c(C(c2c(Cl)c(Cl)c(Cl)c(Cl)c2Cl)c2c(Cl)c(Cl)c(Cl)c(Cl)c2Cl)c(Cl)c1Cl`, the T/C under setting [13] is 97 % of control, the T/C under setting [14] was 93 % of control and the T/C under setting [15] is 89 % of control.
For the compound `Cc1ccc2c(c1)c(C)c(C)c(=O)n2C`, the T/C is 98 % of control (dose: 100.0 mg/kg/injection, schedule: Q01DX001 (ip), vehicle: saline); 93 % of control (dose: 200.0 mg/kg/injection, schedule: Q01DX001 (ip), vehicle: saline); 96 % of control (dose: 400.0 mg/kg/injection, schedule: Q01DX001 (ip), vehicle: saline).
Regarding `c1ccc(-c2cc(-c3ccccc3)[nH]n2)cc1`, the T/C by setting is: under setting [9], 100 % of control; under setting [10], 110 % of control; under setting [11], 105 % of control.
With `CCSc1c(Cl)c(Cl)c(Cl)c(Cl)c1Cl`, the T/C reads like this: under setting [4], 97 % of control; under setting [5], 100 % of control; under setting [6], 87 % of control.
Consider `Cc1cccc(C)c1NC(=O)N1CCN(C)CC1`, for which the T/C is 108 % of control (dose: 25.0 mg/kg/injection, schedule: Q04DX002 (ip), vehicle: saline with Tween-80); 111 % of control (dose: 50.0 mg/kg/injection, schedule: Q04DX002 (ip), vehicle: saline with Tween-80); 108 % of control under setting [4]; 88 % of control (dose: 100.0 mg/kg/injection, schedule: Q04DX002 (ip), vehicle: Klucel (hydroxypropylcellulose) (HPC)); 101 % of control (dose: 100.0 mg/kg/injection, schedule: Q04DX002 (ip), vehicle: saline with Tween-80); 103 % of control under setting [5].
Take `O=P(NC12CC3CC(CC(C3)C1)C2)(c1ccccc1)N1CC1` (stereo unspecified): the T/C runs as follows: (dose: 100.0 mg/kg/injection, schedule: Q04DX003 (ip), vehicle: Klucel (hydroxypropylcellulose) (HPC)) 86 % of control; (dose: 200.0 mg/kg/injection, schedule: Q04DX003 (ip), vehicle: Klucel (hydroxypropylcellulose) (HPC)) 88 % of control; (dose: 400.0 mg/kg/injection, schedule: Q04DX003 (ip), vehicle: Klucel (hydroxypropylcellulose) (HPC)) 89 % of control.
Take `CCO/C=C1\SC(=S)N(c2ccccc2OC)C1=O`: the T/C reads like this: under setting [13], 102 % of control; under setting [14], 104 % of control; under setting [15], 106 % of control.
With `CCCCCCCCCCCCCC(CCCCCC)c1ccccc1` (stereo unspecified), the T/C by setting is: (dose: 100.0 mg/kg/injection, schedule: Q01DX001 (ip), vehicle: saline + alcohol) 119 % of control; (dose: 200.0 mg/kg/injection, schedule: Q01DX001 (ip), vehicle: saline + alcohol) 106 % of control; (dose: 400.0 mg/kg/injection, schedule: Q01DX001 (ip), vehicle: saline + alcohol) 95 % of control.
Take `Cc1ccc(S(=O)(=O)N/N=C(/c2ccccc2)c2ccsc2C)cc1`: the T/C is 98 % of control (dose: 100.0 mg/kg/injection, schedule: Q01DX001 (ip), vehicle: saline with Tween-80); 88 % of control (dose: 200.0 mg/kg/injection, schedule: Q01DX001 (ip), vehicle: saline with Tween-80); 92 % of control (dose: 400.0 mg/kg/injection, schedule: Q01DX001 (ip), vehicle: saline with Tween-80).
As to `CC(=S)Oc1cccc(C)c1`, the T/C reads like this: (dose: 50.0 mg/kg/injection, schedule: Q01DX001 (ip), vehicle: carboxymethylcellulose (CMC)) 102 % of control; (dose: 100.0 mg/kg/injection, schedule: Q01DX001 (ip), vehicle: carboxymethylcellulose (CMC)) 98 % of control; (dose: 200.0 mg/kg/injection, schedule: Q01DX001 (ip), vehicle: carboxymethylcellulose (CMC)) 96 % of control; (dose: 400.0 mg/kg/injection, schedule: Q01DX001 (ip), vehicle: carboxymethylcellulose (CMC)) 104 % of control.
With `O=NN(CCCl)C(=O)Nc1ccc(C(=O)O)cc1`, the T/C is 171 % of control (dose: 1.5 mg/kg/injection, schedule: Q01DX Z (ip), vehicle: saline); 162 % of control (dose: 2.0 mg/kg/injection, schedule: Q01DX Z (ip), vehicle: saline); 118 % of control and 124 % of control (dose: 2.5 mg/kg/injection, schedule: Q01DX001 (ip), vehicle: carboxymethylcellulose (CMC)); 106 % of control (dose: 3.75 mg/kg/injection, schedule: Q## X001 (ip), vehicle: carboxymethylcellulose (CMC)); 151 % of control (dose: 4.5 mg/kg/injection, schedule: Q01DX Z (ip), vehicle: carboxymethylcellulose (CMC)); 153 % of control and 182 % of control (dose: 5.0 mg/kg/injection, schedule: Q01DX001 (ip), vehicle: carboxymethylcellulose (CMC)). Also, the T/C by setting is: (dose: 9.0 mg/kg/injection, schedule: Q01DX Z (ip), vehicle: carboxymethylcellulose (CMC)) 117 % of control; under setting [12], 151 % of control and 168 % of control and 190 % of control; (dose: 15.0 mg/kg/injection, schedule: Q## X001 (ip), vehicle: carboxymethylcellulose (CMC)) 152 % of control; (dose: 20.0 mg/kg/injection, schedule: Q01DX001 (ip), vehicle: carboxymethylcellulose (CMC)) 152 % of control; (dose: 30.0 mg/kg/injection, schedule: Q01DX001 (ip), vehicle: carboxymethylcellulose (CMC)) 218 % of control and 227 % of control; (dose: 30.0 mg/kg/injection, schedule: Q## X001 (ip), vehicle: carboxymethylcellulose (CMC)) 191 % of control.
For the compound `CC(C)=C(Br)CN`, the T/C under setting [7] is 95 % of control; the T/C under setting [8] was 108 % of control; the T/C (dose: 400.0 mg/kg/injection, schedule: Q04DX003 (ip), vehicle: saline) was 94 % of control.
For the compound `Cc1cc(Cl)c(Cl)cc1NC(=O)Nc1ccccc1F`, the T/C by setting is: (dose: 100.0 mg/kg/injection, schedule: Q01DX009 (ip), vehicle: other) 89 % of control and 92 % of control; (dose: 200.0 mg/kg/injection, schedule: Q01DX009 (ip), vehicle: other) 89 % of control; (dose: 400.0 mg/kg/injection, schedule: Q01DX009 (ip), vehicle: other) 98 % of control and 90 % of control.
